The record followed here is US20180008587A1, “THIOHYDANTOIN ANDROGEN RECEPTOR ANTAGONISTS FOR THE TREATMENT OF CANCER” (Jaressen Pharmaceutica NV, priority 2016, published 2018).

SMILES strings stand for the structures.

The test system of test [1] is LNCaP SRα F876L tumors. Briefly: Castrate resistant prostate cancer xenograft study. Format: in vivo, mouse. The settings on record: castrate SHO mice. As to the method: Castrate six to seven week old male SCID Hairless Outbred mice (SHO, Charles Rivers Laboratories) were used as the host strain for xenograft studies. LNCaP SRα F876L tumors were established in host mice and the anti-tumor activity of compounds defined herein was determined. Dosing was initiated when tumors reached 100 to 200 mm^3 and animals were randomized to each of test groups (vehicle (HP-β-CD), 10 mg/kg, 30 mg/kg or 50 mg/kg compound). Compound was dosed orally, QD, for 28 days and tumor size was measured twice weekly along with body weight measurement. At the end of study, the TGI was calculated using initial tumor volume and final tumor volume measurements. TGI: 100−(Treated/Control*100). At the termination of study tumors were collected and stored for further analyses.

Test [2] has as its target T1, AR-VP16 (Homo sapiens, UniProt P10275).
T1 sequence (P10275 560-920 limits assumed): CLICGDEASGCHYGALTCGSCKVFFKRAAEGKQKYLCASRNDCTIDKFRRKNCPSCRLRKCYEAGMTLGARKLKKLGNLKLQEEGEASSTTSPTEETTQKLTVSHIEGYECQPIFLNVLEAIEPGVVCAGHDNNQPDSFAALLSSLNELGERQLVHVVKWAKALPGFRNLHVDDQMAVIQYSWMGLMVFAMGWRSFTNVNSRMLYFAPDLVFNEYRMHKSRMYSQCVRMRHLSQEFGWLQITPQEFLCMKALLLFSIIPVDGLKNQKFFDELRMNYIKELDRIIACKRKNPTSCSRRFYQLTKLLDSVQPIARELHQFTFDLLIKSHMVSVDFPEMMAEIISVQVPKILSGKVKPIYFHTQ
In words: AR-VP16 DNA binding assay, HepG2. The settings on record: HepG2, antagonist mode, 90 pM R1881, 48 hours; read-out: IC50 VP16 WT. Type of test: cell-based. As to the method: HepG2 cells were maintained in EMEM supplemented with 10% FBS. One day before transfection, the media was changed to EMEM with 10% CSS. […] Cells were then trypsinized, counted and resuspended at 500,000 cells/mL. For agonist mode, the compounds were serially diluted and 50 μL of the compound was added per well. 50 μL of the cells were added to each well and incubated for 48 hours. For antagonist mode, a final concentration of 90 pM (VP16 AR) or 1 nM (VP16 F876L) R1881 was added to the plate and incubated for 48 hours. The plates were then assayed using SteadyGlo and read on the Envision. Percent Stimulation and Inhibition were determined and analyzed using GraphPad Prism.

Test [3] deals with T2, AR T877A (Homo sapiens, UniProt P10275, T878A).
T2 construct: expressed in transfected cells; host or cells: HepG2
T2 sequence (P10275 1-920 T878A): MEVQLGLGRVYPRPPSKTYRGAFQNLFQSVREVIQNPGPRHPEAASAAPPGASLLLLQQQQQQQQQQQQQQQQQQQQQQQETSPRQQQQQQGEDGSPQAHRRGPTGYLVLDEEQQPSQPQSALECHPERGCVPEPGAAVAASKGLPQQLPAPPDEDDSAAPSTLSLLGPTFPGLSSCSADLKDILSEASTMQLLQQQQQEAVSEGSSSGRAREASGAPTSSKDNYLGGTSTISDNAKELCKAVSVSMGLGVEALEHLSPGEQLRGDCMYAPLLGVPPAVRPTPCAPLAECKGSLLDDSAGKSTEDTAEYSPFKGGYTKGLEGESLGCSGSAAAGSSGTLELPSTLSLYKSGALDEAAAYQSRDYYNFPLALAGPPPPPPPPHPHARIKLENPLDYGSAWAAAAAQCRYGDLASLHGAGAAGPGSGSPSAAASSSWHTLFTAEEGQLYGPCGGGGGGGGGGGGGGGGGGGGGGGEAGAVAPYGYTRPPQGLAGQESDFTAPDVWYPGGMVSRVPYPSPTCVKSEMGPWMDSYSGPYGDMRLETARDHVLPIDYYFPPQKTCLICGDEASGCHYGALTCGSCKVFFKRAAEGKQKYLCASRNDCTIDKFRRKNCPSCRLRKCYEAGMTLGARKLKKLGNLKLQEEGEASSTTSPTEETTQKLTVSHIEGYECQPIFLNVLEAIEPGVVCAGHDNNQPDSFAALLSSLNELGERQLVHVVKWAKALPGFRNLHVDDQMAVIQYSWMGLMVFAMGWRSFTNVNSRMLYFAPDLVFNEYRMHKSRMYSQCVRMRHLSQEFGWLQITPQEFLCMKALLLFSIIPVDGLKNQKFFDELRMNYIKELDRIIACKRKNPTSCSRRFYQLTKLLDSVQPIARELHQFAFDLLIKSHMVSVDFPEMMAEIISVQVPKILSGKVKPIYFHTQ
Briefly: Luciferase transcriptional reporter assay, mutant AR, HepG2, antagonist mode. Type of test: cell-based. Conditions: HepG2, 90 pM R1881, 48 hours; * denotes incomplete inhibition (otherwise 100%); read-out: Antagonism; IC50, AR construct T877A. The protocol:
HepG2 cells were maintained in EMEM supplemented with 10% FBS. One day before transfection, the media was changed to EMEM with 10% CSS. T-150 flasks were transiently transfected using 120 μL Lipofectamine 2000 (Life Technologies), 30 μg mutant cDNA (expression vector)—mutant cDNA tested were L701H, T877A, W741C and H874Y—and 40 μg 4×ARE-Luciferase (reporter vector) in OptiMEM and the flasks were incubated overnight. Cells were then trypsinized, counted and resuspended at 500,000 cells/mL. For agonist mode, the compounds of Formula (I) are serially diluted and 50 μL of the compound added per well. 50 μL of the cells are added to each well and incubated for 48 hours. For antagonist mode, a final concentration of 90 pM R1881 was added to the diluted compounds and incubated for 48 hours. The plates were then assayed using SteadyGlo and read on the Envision. Percent Stimulation and Inhibition is determined and analyzed using GraphPad Prism.
All values are calculated relative to the activity of R1881 induced androgen receptor activity (n≧3).
A general note: In a reporter assay the amount or activity of a reporter protein is the signal.

For the molecule `N#Cc1ncc(N2C(=O)C3(CCC3)N(c3ccc(OC4CCNCC4)cc3)C2=S)cc1C(F)(F)F` [Cpd 35, 5-[5-oxo-8-[4-(4-piperidyloxy)phenyl]-7-thioxo-6,8-diazaspiro[3.4]octan-6-yl]-3-(trifluoromethyl)pyridine-2-carbonitrile], in test [1] (30 mg/kg orally QD 28 days), the “TGI (%)” value stood at 53%. Also, the IC50 in test [2] came out at 3.39 µM; in test [3] it was 3.59 µM.

As to `N#Cc1ncc(N2C(=O)C3(CCC3)N(c3ccc(C(=O)NCCCO)c(F)c3)C2=S)cc1C(F)(F)F` [Cpd 40, 4-[6-[6-cyano-5-(trifluoromethyl)-3-pyridyl]-5-oxo-7-thioxo-6,8-diazaspiro[3.4]octan-8-yl]-2-fluoro-N-(3-hydroxypropyl)benzamide], the IC50 in test [2] was 0.024 µM; in test [3] it was 7.51 µM.

Consider `CN1CCC(Oc2ccc(N3C(=S)N(c4cnc(C#N)c(C(F)(F)F)c4)C(=O)C34CCC4)cc2)CC1` [Cpd 85, 5-[8-[4-[(1-methyl-4-piperidyl)oxy]phenyl]-5-oxo-7-thioxo-6,8-diazaspiro[3.4]octan-6-yl]-3-(trifluoromethyl)pyridine-2-carbonitrile], for which the “TGI (%)” value is 80.2% in test [1] (10 mg/kg orally QD 28 days) and 100.8% in test [1] (30 mg/kg orally QD 28 days).
